According to paper PMC6009935 (Journal of Enzyme Inhibition and Medicinal Chemistry, 2017):

Key:
thermal nociception [1] = experiment: Tail flick test after i.c.v. injection; assay type: in vivo, mice; settings: i.c.v. 1, 5 and 10 µg/mouse; 15-90 min
Description: (§1) In vivo nociception tests
(§2) Male CD-1 mice (Harlan, Italy) weighting 25-30 g were used for all experiments. Mice were housed for at least 1 week before the experimental sessions in colony cages (7 mice in each cage) under standard light (from 7.00 a.m. to 7.00 p.m.), temperature (21±1°C), relative humidity (60±10%) with food and water available ad libitum. The research protocol was approved by the Service for Biotechnology and Animal Welfare of the Istituto Superiore di Sanità and authorized by the Italian Ministry of Health, according to Legislative Decree 26/14, which implemented the European Directive 2010/63/UE on laboratory animal protection in Italy. […]
(§3) In the case of hot plate test, the thermal nociception was assessed with a commercially available apparatus consisting in a metal plate 25x25 cm (Ugo Basile, Italy) heated to a constant temperature of 55±0.1°C, on which a plastic cylinder (20 cm diameter, 18 cm high) was placed. The time of latency (s) was recorded from the moment the animal was inserted inside the cylinder up to when it licked its paws or jerked them off the hot plate; jumped off the hot plate; the latency exceeded the cut-off time of 60 s. The baseline was calculated as mean of three readings recorded before testing at intervals of 15-30 min. The time course of latency was then determined at 15, 30, 45, 60, and 90 min after treatment. […]

thermal nociception [2] = experiment: Hot plate test after i.c.v. injection; assay type: in vivo, mice; settings: i.c.v. 1, 5 and 10 µg/mouse; 15-90 min
Description: as §1, §2, §3

Cc1c(C(=O)NC2CCN(C(=O)[C@H](Cc3ccccc3)NC(=O)CNC(=O)[C@@H](C)NC(=O)[C@@H](N)Cc3ccc(O)cc3)CC2)nn(-c2ccc(Cl)cc2Cl)c1-n1cccc1 [Compound 9]
latency of the nociceptive response, tail flick test (thermal nociception [1]): absence of effect
behavioral response to thermal nociceptive stimuli, hot plate test (thermal nociception [2]): no difference in treatments
